Data set [1] is described as follows: Neurotoxicity in AB zebra fish larvae assessed as increase in total swimming distance at > 12.5 uM after 6 hrs. The data set is classed as toxicity, Danio rerio. The following applies: zebrafish.
Data set [2] is described as follows: Toxicity in AB zebra fish larvae assessed as maximum tolerated concentration after 6 hrs. The following applies: zebrafish, read-out: MTC. The arrangement: species or system Danio rerio.
Data set [3] in a line: Ratio of MTC for toxicity in AB zebra fish larvae to lowest observed effect concentration for Anticonvulsant activity in AB zebra fish larvae assessed as reduction in PTZ-induced convulsant behavior. The arrangement: species or system Danio rerio.
Data set [4] can be described thus: Neurotoxicity in AB zebra fish larvae assessed as decrease in total swimming distance at <= MTC after 6 hrs. The following applies: zebrafish. It is filed as toxicity, Danio rerio.
Data set [5] is described as follows: Neurotoxicity in AB zebra fish larvae at 25 uM after 6 hrs. It is filed as toxicity, Danio rerio. The note with it: zebrafish.
Data set [6] is filed under the species Danio rerio. Briefly: Anticonvulsant activity in AB zebra fish larvae assessed as reduction in PTZ-induced convulsant behavior by measuring swimming distance at 3.1 to 12.5 uM pretreated for 6 hrs followed by PTZ-stimulation and measured every 5 mins for 1 hr. The data set is classed as functional, organism-based. The note with it: dose 3.1-12.5 µM, time 7.0 hrs.

Data set [7] in a line: Toxicity in AB zebra fish larvae assessed as mortality at >= 25 uM after 6 hrs. Details: species or system Danio rerio. The following applies: zebrafish.
Data set [8] is filed under the species Danio rerio. In words: Anticonvulsant activity in AB zebra fish larvae assessed as reduction in PTZ-induced convulsant behavior by measuring lowest observed effect concentration pretreated for 6 hrs followed by PTZ-stimulation and measured every 5 mins for 1 hr. It is filed as functional. The following applies: time 7 hrs.

These results are taken from ChEMBL document CHEMBL4715874, “In Vivo Screening of Xanthones from Garcinia oligantha Identified Oliganthin H as a Novel Natural Inhibitor of Convulsions” (J Nat Prod, 2020).

Active and inactive are the calls of the source. No cut-off for these calls is given here.

For the molecule `CC(C)=CCC1(CC=C(C)C)C(=O)C(O)=C(O)c2oc3c4c(cc(O)c3c(=O)c21)OC(C)(C)C=C4`, the Activity entry is “Toxic” in data set [1]; “Non-Toxic” in data set [4]; “Toxic” in data set [5]; “Toxic” in data set [7]; over 12.5 µM in the data set filed under Danio rerio [8]. In addition, the MNTC at 6 h in data set [2] worked out at 12.5 µM. Further, in data set [3], the Ratio is given as under 1. Further, in the data set listed under Danio rerio [6], the outcome was inactive.
